Consider 7 compounds from patent US5824652A, “Heterocyclic acyldipeptides, processes for the preparation thereof and pharmaceutical compositions containing the same” (Univerza v Ljubljani, Fakulteta za naravoslovje in …, priority 1993, dated 1998).

Molecules are shown by their SMILES.

Series [1] concerns B-16 melanoma. Put plainly: Antitumor activity, solid subcutaneous B-16 melanoma. It is filed as in vivo, C57B1/6 strain mice. To be noted: 10 mg/kg on five consecutive days, started 24 hours after tumor induction; for Animals with complete regression of tumors: still without tumors on day 20. The method, then: Solid subcutaneous B-16 melanoma were used on C57B1/6 strain mice of 8 to 10 weeks. The tumors were implanted by injection of 3×10^5 live tumor cells into the left lower abdomen of mice. The suspension of tumor cells was prepared in ENAM (Eagle's Minimal Essential Medium, Sigma Chemical Co., St. Louis, Mo., U.S.A.) enriched with 2% foetal calf serum (FCS, Sigma). Tumor cells (B-16 melanoma tumor cells, clone F1, ATCC, Rockville, Md.) for implantation into test animals were grown in vitro in a cell culture. The application of the test substances was started 24 hours after the tumor induction. The test substance was injected five times on five consecutive days in a dose of 10 mg/kg, the dose of Nopia was 1 mg/kg of test animals daily (a fivefold human dose). The antitumor activity of the active compounds was monitored by recording the tumor emergence, daily measuring the tumor diameters and calculating the tumour volumes.

The subject of series [2] is Candida albicans. Put plainly: Immunorestoration test (cyclophosphamide-immunosuppressed mice challenged with Candida albicans). The format is in vivo. The settings on record: for Number of survivals: Candida albicans challenge, n = 10. The method, then: The test substance or a vehicle was administered i.p. to groups of 10 mice on days 1, 3 and 5 of the experiment in four different doses (0.1, 1, 10 and 100 mg/kg). Cyclophosphamide (30 mg/kg) was administered p.o. on days 2, 4, and 6. One day after the last immunosuppressant (cyclophosphamide) dose, the mice were challenged with a suspension of Candida albicans sufficient to result in the mortality of a predominant number of the animals.

The test system of series [3] is lymphocytes B. Nature of the series: Determination of haemolytic plaques for the assessment of the maturation of lymphocytes B. It is filed as in vivo. To be noted: mice immunized with sheep erythrocytes, n = 5. The procedure: A suspension of sheep erythrocytes (Institute of Microbiology, Faculty of Medicine, Ljubljana, Slovenia) in physiological saline (10^8 /ml) was used for the immunization. […] Romurtide was dissolved in a solution of D-manitol (45 mg/ml; Nopia) and compound 1 was dissolved in physiological saline. The immunization was completed on day 5 after the administration of sheep erythrocytes and the mice were sacrificed. Their spleens were removed and homogenized in Gibco 199 medium. The lymphocytes were separated on the Ficol separating medium (Pharmacia, Uppsala, Sweden). After repeated rinsing with Gibco 199 medium, the cells were resuspended in RPMI 1640 nutrient medium with added 10% of foetal calf serum and streptomycin. To 50 μl of the cell suspension, 450 μl of trypan blue were added and the cells were counted in Neubauer's chamber. The number of lymphocytes per ml of the cell suspension was calculated. To 100 μl of the diluted cell suspension, there were added 200 μl of the RPMI 1640 nutrient medium, 50 μl of a 10% suspension of sheep erythrocytes and 50 μl of guinea pig complement (Institute for Microbiology, Faculty of Medicine, Ljubljana, Slovenia). The reaction mixture (RM) was put into the prepared chambers on the slide, the chambers were sealed with white wax and incubated at 37° C. for 60 minutes. After the completion of the incubation, the plaques were counted under microscope. The number of plaques per 1×10^6 cells was calculated according to the following equations: [formula] In the table, the values are presented as stimulation indexes (number of plaques in the test group/number of plaques in the control group).

A short description of series [4]: Pyrogenous activity according to the method of USPXXII. It is filed as in vivo. The method, then: The pyrogenous activity was determined according to the method of USPXXII.
A short description of series [5]: Toxicity, average lethal dose (LD50). It is filed as in vivo. To be noted: male mice, intravenous application.
[6] abbreviates: 0.1 mg/kg × 3 i.p. + cyclophosphamide 30 mg/kg p.o.
The mark [7] stands for this setting: 1 mg/kg × 3 i.p. + cyclophosphamide 30 mg/kg p.o.
The mark [8] stands for this setting: 10 mg/kg × 3 i.p. + cyclophosphamide 30 mg/kg p.o.
Setting [9] is: 100 mg/kg × 3 i.p. + cyclophosphamide 30 mg/kg p.o.

Regarding `C[C@H](NC(=O)C1(C)Oc2ccccc2NC1=O)C(=O)N[C@H](CCC(=O)O)C(N)=O` (stereo partly drawn) [Compound 3, N-(3,4-dihydro-2-methyl-3-oxo-2H-1,4-benzoxazine-2-carbonyl)-L-alanyl-D-isoglutamine], the “Animals still without tumors on day 20 after the tumor induction” value in series [1] is given as “three animals of nine”.

With `C[C@H](NC(=O)C1(C)Oc2ccccc2N(C)C1=O)C(=O)N[C@H](CCC(=O)O)C(N)=O` (stereo partly drawn) [Compound 4, (2S)-N-(3,4-dihydro-2,4-dimethyl-3-oxo-2H-1,4-benzoxazine-2-carbonyl)-L-alanyl-D-isoglutamine], the “Animals with complete regression of tumors” value in series [1] is on record as “one of nine animals”.

For the compound `C[C@@H](NC(=O)C1(C)Oc2ccccc2NC1=O)C(=O)N[C@H](CCC(=O)O)C(N)=O` (stereo partly drawn) [Compound 2, (2R)-N-(3,4-dihydro-2-methyl-3-oxo-2H-1,4-benzoxazine-2-carbonyl)-L-alanyl-D-isoglutamine], in series [1], the “Animals with complete regression of tumors” value is on record as “two of eight animals”.

Take `CCCCCCCCCCCCCCCCCC(=O)NCCCC[C@H](NC(=O)CC[C@@H](NC(=O)[C@H](C)NC(=O)[C@@H](C)O[C@H]1[C@H](O)[C@@H](CO)OC(O)[C@@H]1NC(C)=O)C(N)=O)C(=O)O` (stereo partly drawn) [Romurtide, romurtide, reference compound]: the Number of survivals in series [2] (setting [6]) is reported as 5. For the same compound, the “Stimulation index (number of plaques in the test group/number of plaques in the control group)” value came to 1.06 in series [3] (dose 1 μ/mouse) and 1.92 in series [3] (dose 10 μ/mouse).

On to `CCCCCCCCCCCC(=O)N[C@@H]1CCCC[C@H]1OCC(=O)N[C@@H](C)C(=O)N[C@H](CCC(=O)O)C(N)=O` [U.S. 5,231,216, N[trans2-(2dodecanoylaminocyclohexyloxy)acetyl)L-alanyl-D-isoglutamine, reference compound], for which the Number of survivals in series [2] (setting [6]) worked out at 2; in series [2] (setting [7]) it was 5; in series [2] (setting [8]) it was 6; in series [2] (setting [9]), 6.

Regarding `O=P1(N(CCCl)CCCl)NCCCO1` (stereo not drawn) [Cyclophosphamide, reference compound], the Number of survivals in series [2] (cyclophosphamide alone 30 mg/kg × 3 p.o.) came to 3.

As for `C[C@H](NC(=O)C1(C)Oc2ccccc2N(C)C1=O)C(=O)N[C@H](CCC(=O)O)C(N)=O` (stereo partly drawn) [Compound 1, N-(3,4-Dihydro-2,4-dimethyl-3-oxo-2H-1,4-benzoxazine-2-carbonyl)-L-alanyl-D-isoglutamine], the Pyrogenous activity entry in series [4] is recorded as “did not show any pyrogenous activity”. The Number of survivals in series [2] (setting [6]) is recorded as 6; in series [2] (setting [7]), 6; in series [2] (setting [8]), 7; in series [2] (setting [9]) it was 6. For the same compound, the “Dose achieving the immunorestorative effect, times lower in comparison with the related compounds of U.S. Pat. No. 5,231,216” value in series [2] (comparison across i.p. doses 0.1-100 mg/kg) is listed as “up to 100 times”. Besides, the “Immunorestorative activity compared with romurtide” value in series [2] (mouse, in vivo) is “superior to that of the MDP analogue romurtide”. In addition, in series [5], the “average lethal dose (LD50)” value is listed as more than 250 mg/kg. Moreover, the “Stimulation index (number of plaques in the test group/number of plaques in the control group)” value in series [3] (dose 1 μ/mouse) turned out to be 3.64; in series [3] (dose 10 μ/mouse), 5.32.
